Measurements as given in patent US11518761B2, “CDPK1 inhibitors, compositions, and methods related thereto” (Vyera Pharmaceuticals, LLC, priority 2017, dated 2022).

These compounds were tested against T. gondii CDPK1 (tgCDPK1) (Toxoplasma gondii, UniProt Q9BJF5) (assay: biochemical). Conditions: at least three independent replicates.
Sequence of T. gondii CDPK1 (tgCDPK1) (Q9BJF5 1-507): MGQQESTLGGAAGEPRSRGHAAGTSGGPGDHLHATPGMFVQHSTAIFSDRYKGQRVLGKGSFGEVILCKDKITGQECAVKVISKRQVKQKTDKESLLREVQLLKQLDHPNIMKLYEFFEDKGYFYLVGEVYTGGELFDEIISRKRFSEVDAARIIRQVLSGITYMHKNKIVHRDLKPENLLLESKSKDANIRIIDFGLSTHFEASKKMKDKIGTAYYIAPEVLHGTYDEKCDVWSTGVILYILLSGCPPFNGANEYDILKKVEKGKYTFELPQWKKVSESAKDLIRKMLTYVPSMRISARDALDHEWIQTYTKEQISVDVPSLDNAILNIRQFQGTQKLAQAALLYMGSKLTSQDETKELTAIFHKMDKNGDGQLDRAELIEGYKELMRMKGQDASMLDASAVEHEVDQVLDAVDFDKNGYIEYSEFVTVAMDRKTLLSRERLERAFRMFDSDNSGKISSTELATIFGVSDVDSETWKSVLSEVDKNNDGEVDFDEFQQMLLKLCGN
Experimental: Certain of the compounds prepared as described above were assayed to determine their IC50 for inhibition of T. gondii CDPK1 (tgCDPK1). At least three independent replicates of the assay were conducted for each compound tested.
For `Nc1ncnc2c1c(Cc1c[nH]c3ccc(F)cc13)nn2[C@H]1C[C@H](O)C1` [Compound 154, (trans)-3-(4-amino-3-((5-fluoro-1H-indol-3-yl)methyl)-1H-pyrazolo[3,4-d]pyrimidin-1-yl)cyclobutan-1-ol], the IC50 was 11.8 nM.
Compound “(2-((4-amino-1-cyclopropyl-1H-pyrazolo[3,4-d]pyrimidin-3-yl)oxy)pyrimidin-4-yl)methanol [Compound 86]” has an IC50 of 29.6 nM.
`Nc1ncnc2c1c(Oc1cc(C(F)(F)F)ccn1)nn2C1CC1` [Compound 77, 1-cyclopropyl-3-((4-(trifluoromethyl)pyridin-2-yl)oxy)-1H-pyrazolo[3,4-d]pyrimidin-4-amine] was tested, and the IC50 was 16.5 nM.
For `Nc1ncnc2c1c(Oc1cccc(Cl)c1)nn2[C@H]1C[C@@H](O)C1` [Compound 152], the IC50 was 27.3 nM.
In the case of `Nc1ncnc2c1c(Oc1cccc(F)c1)nn2[C@H]1C[C@@H](O)C1` [Compound 153, (cis)-3-(4-ammo-3-(3-fluorophenoxy)-1H-pyrazolo[3,4-d]pyrimidin-1-yl)cyclobutan-1-ol], the IC50 is reported as 33.8 nM.
In the case of `Nc1ncnc2c1c(Oc1cccc(C(F)(F)F)c1)nn2[C@H]1C[C@H](F)C1` [Compound 166], the IC50 is reported as 28.9 nM.
Compound `Nc1ncnc2c1c(Oc1cc(Cl)ccn1)nn2[C@H]1C[C@H](F)C1` [Compound 158, 3-[(4-chloropyridin-2-yl)oxy]-1-[(trans)-3-fluorocyclobutyl]-l H-pyrazolo[3,4-d]pyrimidin-4-amine] has an IC50 of 11.4 nM.
`Nc1ncnc2c1c(Cc1cccc(Cl)c1)nn2[C@H]1C[C@@H](O)C1` [Compound 130, (cis)-3-(4-amino-3-(3-chlorobenzyl)-1H-pyrazolo[3,4-d]pyrimidin-1-yl)cyclobutan-1-ol] was tested, and the IC50 was 15.4 nM.
`Nc1ncnc2c1c(Oc1cccc(F)c1)nn2[C@H]1C[C@H](O)C1` [Compound 155, (trans)-3-(4-amino-3-(3-fluorophenoxy)-1H-pyrazolo[3,4-d]pyrimidin-1-yl)cyclobulan-1-ol] gave an IC50 of 38 nM.
With `Nc1ncnc2c1c(Cc1cccc(F)c1)nn2[C@H]1C[C@@H](O)C1` [Compound 132] the IC50 was 28.4 nM.
